Data reported in US20120324604A1, “PESTICIDAL MIXTURES CONTAINING ISOXAZOLINE DERIVATIVES AND A FUNGICIDE” (priority 2010, published 2012).
Several values for one entry are separate records, joined by “and”; a condition that tells them apart may be missing. Equal values may be shown once.

Key:
Type in all cases: cell-based
Pythium ultimum = Pythium ultimum (Damping Off) growth inhibition, microtiter plate, photometric
Protocol: Pythium ultimum (Damping Off):
Mycelial fragments of the fungus, prepared from a fresh liquid culture, were directly mixed into nutrient broth (potato dextrose broth). After placing a (DMSO) solution of the test compounds into a microtiter plate (96-well format) the nutrient broth containing the fungal spores was added.

[1] = test system: Mycosphaerella arachidis (syn. Cercospora arachidicola); experiment: Mycosphaerella arachidis (Brown Leaf Spot of Groundnut) growth inhibition, microtiter plate, photometric; conditions: alone
Protocol: Mycosphaerella arachidis (syn. Cercospora arachidicola), Brown Leaf Spot of Groundnut (Peanut):
(§1) Conidia of the fungus from cryogenic storage were directly mixed into nutrient broth (potato dextrose broth). After placing a (DMSO) solution of the test compounds into a microtiter plate (96-well format) the nutrient broth containing the fungal spores was added.

[2] = test system: Glomerella lagenarium (syn. Colletotrichum lagenarium); experiment: Glomerella lagenarium (Anthracnose of Cucurbits) growth inhibition, microtiter plate, photometric; conditions: alone
Protocol: Glomerella lagenarium (syn. Colletotrichum lagenarium), Anthracnose of Cucurbits:
as §1

Fusarium culmorum = Fusarium culmorum (Root Rot) growth inhibition, microtiter plate, photometric
Protocol: Fusarium culmorum (Root Rot):
as §1

Rhizoctonia solani = Rhizoctonia solani (Foot Rot, Damping-Off) growth inhibition, microtiter plate, photometric
Protocol: Rhizoctonia solani (Foot Rot, Damping-Off):
Mycelial fragments of the fungus from cryogenic storage were directly mixed into nutrient broth (potato dextrose broth). After placing a (DMSO) solution of the test compounds into a microtiter plate (96-well format) the nutrient broth containing the fungal spores was added.

Septoria tritici = Septoria tritici (Leaf Blotch) growth inhibition, microtiter plate, photometric
Protocol: Septoria tritici (Leaf Blotch):
as §1

Gaeumannomyces graminis = Gaeumannomyces graminis growth inhibition, microtiter plate, photometric
Protocol: Mycelial fragments of the fungus from cryogenic storage were directly mixed into nutrient broth (potato dextrose broth). After placing a (DMSO) solution of the test compounds into a microliter plate (96-well format) the nutrient broth containing the fungal spores was added.

[3] = single compound at 0.078125 ppm AI
[4] = single compound at 0.15625 ppm AI
[5] = single compound at 0.3125 ppm AI
[6] = single compound at 0.625 ppm AI
[7] = single compound at 0.125 ppm AI
[8] = single compound at 0.0625 ppm AI

Structure (SMILES): Cc1cc(C2=NOC(c3cc(Cl)cc(Cl)c3)(C(F)(F)F)C2)ccc1C(=O)NC1C[S+]([O-])C1 (stereo not drawn) [A6]
- AVERAGE DEAD IN % (Pythium ultimum; [3]): 0%
- AVERAGE DEAD IN % (Pythium ultimum; [4]): 0%
- AVERAGE DEAD IN % (Pythium ultimum; [5]): 0%
- AVERAGE DEAD IN % (Pythium ultimum; [6]): 0%
- AVERAGE DEAD IN % (Pythium ultimum; single compound at 1.25 ppm AI): 0%
- AVERAGE DEAD IN % (Pythium ultimum; single compound at 2.5 ppm AI): 0%
- AVERAGE DEAD IN % (Pythium ultimum; single compound at 5 ppm AI): 0%
- AVERAGE DEAD IN % (Pythium ultimum; single compound at 10 ppm AI): 0%
- AVERAGE DEAD IN % (Pythium ultimum; single compound at 20 ppm AI): 0%
- AVERAGE DEAD IN % ([1]; 0.0390625 PPM AI): 0%
- AVERAGE DEAD IN % ([1]; 0.078125 PPM AI): 0%
- AVERAGE DEAD IN % ([1]; 0.15625 PPM AI): 0%
- AVERAGE DEAD IN % ([1]; 0.3125 PPM AI): 0%
- AVERAGE DEAD IN % ([1]; 0.625 PPM AI): 0%
- AVERAGE DEAD IN % ([1]; 1.25 PPM AI): 0%
- AVERAGE DEAD IN % ([1]; 2.5 PPM AI): 0%
- AVERAGE DEAD IN % ([1]; 5 PPM AI): 0%
- AVERAGE DEAD IN % ([1]; 10 PPM AI): 0%
- AVERAGE DEAD IN % ([1]; 20 PPM AI): 0%
- AVERAGE DEAD IN % ([2]; 0.078125 ppm AI): 0%
- AVERAGE DEAD IN % ([2]; 0.15625 ppm AI): 0%
- AVERAGE DEAD IN % ([2]; 2.5 ppm AI): 0%
- AVERAGE DEAD IN % ([2]; 5 ppm AI): 0%
- AVERAGE DEAD IN % ([2]; 10 ppm AI): 0%
- AVERAGE DEAD IN % ([2]; 20 ppm AI): 0%
- AVERAGE DEAD IN % (Fusarium culmorum; single compound, 2.5 PPM AI, 48 hrs, 24° C.): 0%
- AVERAGE DEAD IN % (Fusarium culmorum; single compound, 5 PPM AI, 48 hrs, 24° C.): 0%
- AVERAGE DEAD IN % (Fusarium culmorum; single compound, 10 PPM AI, 48 hrs, 24° C.): 0%
- AVERAGE DEAD IN % (Fusarium culmorum; single compound, 20 PPM AI, 48 hrs, 24° C.): 0%
- AVERAGE DEAD IN % (Rhizoctonia solani; applied alone, 0.0390625 ppm AI): 0%
- AVERAGE DEAD IN % (Rhizoctonia solani; applied alone, 0.078125 ppm AI): 0%
- AVERAGE DEAD IN % (Rhizoctonia solani; applied alone, 0.15625 ppm AI): 0%
- AVERAGE DEAD IN % (Rhizoctonia solani; applied alone, 0.3125 ppm AI): 0%
- AVERAGE DEAD IN % (Rhizoctonia solani; applied alone, 0.625 ppm AI): 0%
- AVERAGE DEAD IN % (Rhizoctonia solani; applied alone, 1.25 ppm AI): 0%
- AVERAGE DEAD IN % (Rhizoctonia solani; applied alone, 2.5 ppm AI): 0%
- AVERAGE DEAD IN % (Rhizoctonia solani; applied alone, 5 ppm AI): 0%
- AVERAGE DEAD IN % (Rhizoctonia solani; applied alone, 10 ppm AI): 0%
- AVERAGE DEAD IN % (Rhizoctonia solani; applied alone, 20 ppm AI): 0%
- AVERAGE DEAD IN % (Septoria tritici; 0.3125 ppm AI, alone): 0%
- AVERAGE DEAD IN % (Septoria tritici; 0.625 ppm AI, alone): 0%
- AVERAGE DEAD IN % (Septoria tritici; 1.25 ppm AI, alone): 0%
- AVERAGE DEAD IN % (Septoria tritici; 2.5 ppm AI, alone): 0%
- AVERAGE DEAD IN % (Septoria tritici; 5 ppm AI, alone): 0%
- AVERAGE DEAD IN % (Septoria tritici; 10 ppm AI, alone): 0%
- AVERAGE DEAD IN % (Septoria tritici; 20 ppm AI, alone): 0%
- AVERAGE DEAD IN % A6 (Septoria tritici; A6 alone, 0.0390625 ppm AI): 0%
- AVERAGE DEAD IN % A6 (Septoria tritici; A6 alone, 0.078125 ppm AI): 0%
- AVERAGE DEAD IN % A6 (Septoria tritici; A6 alone, 0.15625 ppm AI): 0%
- AVERAGE DEAD IN % A6 (Septoria tritici; A6 alone, 0.3125 ppm AI): 0%
- AVERAGE DEAD IN % A6 (Septoria tritici; A6 alone, 0.625 ppm AI): 0%
- AVERAGE DEAD IN % A6 (Septoria tritici; A6 alone, 1.25 ppm AI): 0%
- AVERAGE DEAD IN % A6 (Septoria tritici; A6 alone, 2.5 ppm AI): 0%
- AVERAGE DEAD IN % A6 (Septoria tritici; A6 alone, 5 ppm AI): 0%
- AVERAGE DEAD IN % A6 (Septoria tritici; A6 alone, 10 ppm AI): 0%
- AVERAGE DEAD IN % A6 (Septoria tritici; A6 alone, 20 ppm AI): 0%
- AVERAGE DEAD IN % (Gaeumannomyces graminis; single compound at 0.0390625 ppm AI): 0%
- AVERAGE DEAD IN % (Gaeumannomyces graminis; [3]): 0%
- AVERAGE DEAD IN % (Gaeumannomyces graminis; [4]): 0%
- AVERAGE DEAD IN % (Gaeumannomyces graminis; [5]): 0%
- AVERAGE DEAD IN % (Gaeumannomyces graminis; [6]): 0%
- AVERAGE DEAD IN % (Gaeumannomyces graminis; single compound at 1.25 ppm AI): 0%
- AVERAGE DEAD IN % (Gaeumannomyces graminis; single compound at 2.5 ppm AI): 0%
- AVERAGE DEAD IN % (Gaeumannomyces graminis; single compound at 5 ppm AI): 0%
- AVERAGE DEAD IN % (Gaeumannomyces graminis; single compound at 10 ppm AI): 0%
- AVERAGE DEAD IN % (Gaeumannomyces graminis; single compound at 20 ppm AI): 0%

Structure (SMILES): CO/C=C(/C(=O)OC)c1ccccc1Oc1cc(Oc2ccccc2C#N)ncn1 [Azoxystrobin, reference compound]
- AVERAGE DEAD IN % (Pythium ultimum; [7]): 0%
- AVERAGE DEAD IN % ([1]; 0.0078125 ppm AI): 0%
- AVERAGE DEAD IN % ([1]; 0.015625 ppm AI): 0%
- AVERAGE DEAD IN % ([1]; 0.0625 ppm AI): 70% and 50%
- AVERAGE DEAD IN % ([1]; 0.125 ppm AI): 90%
- AVERAGE DEAD IN % ([1]; 0.0078125 PPM AI): 0%
- AVERAGE DEAD IN % ([1]; 0.015625 PPM AI): 20%
- AVERAGE DEAD IN % ([1]; 0.03125 PPM AI): 50% and 70%
- AVERAGE DEAD IN % ([1]; 0.0625 PPM AI): 90%
- AVERAGE DEAD IN % ([2]; 0.0078125 ppm AI): 0%
- AVERAGE DEAD IN % ([2]; 0.015625 ppm AI): 20%
- AVERAGE DEAD IN % ([2]; 0.03125 ppm AI): 50%
- AVERAGE DEAD IN % (Fusarium culmorum; alone, 0.5 PPM AI): 0%
- AVERAGE DEAD IN % (Fusarium culmorum; alone, 1 PPM AI): 20%
- AVERAGE DEAD IN % (Fusarium culmorum; alone, 2 PPM AI): 20%
- AVERAGE DEAD IN % (Rhizoctonia solani; applied alone, 0.125 ppm AI): 20%
- AVERAGE DEAD IN % (Rhizoctonia solani; applied alone, 0.25 ppm AI): 20%
- AVERAGE DEAD IN % (Rhizoctonia solani; applied alone, 0.5 ppm AI): 20%
- AVERAGE DEAD IN % (Rhizoctonia solani; applied alone, 1 ppm AI): 20%
- AVERAGE DEAD IN % (Rhizoctonia solani; applied alone, 2 ppm AI): 20%
- AVERAGE DEAD IN % (Rhizoctonia solani; [8]): 20%
- AVERAGE DEAD IN % (Rhizoctonia solani; [7]): 20%
- AVERAGE DEAD IN % (Rhizoctonia solani; single compound at 0.25 ppm AI): 20%
- AVERAGE DEAD IN % (Rhizoctonia solani; single compound at 0.5 ppm AI): 20%
- AVERAGE DEAD IN % (Rhizoctonia solani; single compound at 1 ppm AI): 20%
- AVERAGE DEAD IN % (Rhizoctonia solani; single compound at 2 ppm AI): 20%
- AVERAGE DEAD IN % (Septoria tritici; 0.015625 ppm AI, alone): 20%
- AVERAGE DEAD IN % (Septoria tritici; 0.03125 ppm AI, alone): 50%
- AVERAGE DEAD IN % (Septoria tritici; 0.0625 ppm AI, alone): 70%
- AVERAGE DEAD IN % (Septoria tritici; 0.125 ppm AI, alone): 90%
- AVERAGE DEAD IN % Azoxystrobin (Septoria tritici; Azoxystrobin alone, 0.015625 ppm AI): 20%
- AVERAGE DEAD IN % Azoxystrobin (Septoria tritici; Azoxystrobin alone, 0.0625 ppm AI): 70%
- AVERAGE DEAD IN % Azoxystrobin (Septoria tritici; Azoxystrobin alone, 0.125 ppm AI): 90%
- AVERAGE DEAD IN % (Septoria tritici; alone, 0.0078125 ppm AI): 0%
- AVERAGE DEAD IN % (Septoria tritici; alone, 0.015625 ppm AI): 20%
- AVERAGE DEAD IN % (Septoria tritici; alone, 0.03125 ppm AI): 50%
- AVERAGE DEAD IN % (Septoria tritici; alone, 0.0625 ppm AI): 70%
- AVERAGE DEAD IN % (Septoria tritici; alone, 0.125 ppm AI): 90%
- AVERAGE DEAD IN % (Gaeumannomyces graminis; applied alone, 0.00390625 ppm AI): 0%
- AVERAGE DEAD IN % (Gaeumannomyces graminis; applied alone, 0.0078125 ppm AI): 0%
- AVERAGE DEAD IN % (Gaeumannomyces graminis; applied alone, 0.015625 ppm AI): 0%
- AVERAGE DEAD IN % (Gaeumannomyces graminis; applied alone, 0.03125 ppm AI): 0%
- AVERAGE DEAD IN % (Gaeumannomyces graminis; applied alone, 0.0625 ppm AI): 0%
- AVERAGE DEAD IN % (Gaeumannomyces graminis; applied alone, 0.125 ppm AI): 20%
- AVERAGE DEAD IN % (Gaeumannomyces graminis; applied alone, 0.25 ppm AI): 20%
- AVERAGE DEAD IN % (Gaeumannomyces graminis; applied alone, 0.5 ppm AI): 50%
- AVERAGE DEAD IN % (Gaeumannomyces graminis; applied alone, 1 ppm AI): 50%
- AVERAGE DEAD IN % (Gaeumannomyces graminis; applied alone, 2 ppm AI): 50%
- AVERAGE DEAD IN % (Gaeumannomyces graminis; single compound at 0.00390625 ppm AI): 20%
- AVERAGE DEAD IN % (Gaeumannomyces graminis; single compound at 0.015625 ppm AI): 90% and 50%
- AVERAGE DEAD IN % (Gaeumannomyces graminis; single compound at 0.03125 ppm AI): 100% and 50%
- AVERAGE DEAD IN % (Gaeumannomyces graminis; [8]): 50%
- AVERAGE DEAD IN % (Gaeumannomyces graminis; [7]): 70%
- AVERAGE DEAD IN % (Gaeumannomyces graminis; single compound at 0.25 ppm AI): 70%
- AVERAGE DEAD IN % (Gaeumannomyces graminis; single compound at 0.5 ppm AI): 90%
- AVERAGE DEAD IN % (Gaeumannomyces graminis; single compound at 1 ppm AI): 90%
- AVERAGE DEAD IN % (Gaeumannomyces graminis; single compound at 2 ppm AI): 90%
